In patent publication US20240050577A1, “CDK INHIBITORS AND PHARMACEUTICAL USES THEREOF” (RISEN (SUZHOU) PHARMA TECH CO., LTD., priority 2022, published 2024):

Test system: OVCAR3 cells
Assay: Cell proliferation study (Cell Titer Glo, 72 h)
Assay type: cell-based
Settings: Homo sapiens, OVCAR-3, luminescence, read-out: IC50, inhibitory effect on cellular proliferation
Description: OVCAR3 (Cobioer, CBP60294) cell line in logarithmic growth phase was used for these experiments. The cell density was adjusted to 1.1×10^4/mL and the cells were inoculated into a 96-well cell culture plate (Corning, 3599), 95 μL per well (the number of cells per well was 1×10^3). The culture plate was placed in an incubator, with 5% carbon dioxide, at 37° C. and incubated overnight. On the next day, a 10 mM stock solution of test compound was prepared in DMSO (Sigma, RNBF5902). After gradient dilution, a series of working solutions with different concentrations of test compound was prepared using complete medium. Working solution was added into the corresponding wells of the orifice plate, and the plate was placed in a 5% carbon dioxide incubator and cultivated at 37° C. for 72 h, and then removed from the incubator. To each well was added 50 μL Cell Tier Glo (Promega, G7573), and the plate was incubated at room temperature for 10 min, followed by luminescence detection with an enzyme marker. The inhibition curve was obtained with GraphPad 7.0 software using four-parameter equation.

Row | IC50 [nM] | Structure (SMILES)
1 | 101 to 1000 | C[C@@]1(O)CCC[C@H]1n1c(=O)ccc2cnc(NC3CCN(S(=O)(=O)C4CCN(C5CCC6(CCN(c7cc8c(cc7F)C(=O)N(C7CCC(=O)NC7=O)C8=O)CC6)C5)CC4)CC3)nc21 (some centres unmarked) [Compound 81]
2 | 101 to 1000 | Cc1nc2c(F)cc(-c3nc(NC4CCN(S(=O)(=O)C5CCN(CC6CCC7(CC6)CN(c6cc8c(cc6F)C(=O)N(C6CCC(=O)NC6=O)C8=O)C7)CC5)CC4)ncc3F)cc2n1C(C)C (centres unmarked) [Compound 97]
3 | 101 to 1000 | Cc1nc2c(F)cc(-c3nc(NC4CCN(S(=O)(=O)C5CN(CC6CCN(c7cc8c(cc7F)C(=O)N(C7CCC(=O)NC7=O)C8=O)CC6)C5)CC4)ncc3F)cc2n1C(C)C (centres unmarked) [Compound 100]
4 | 1000 to 5000 | Cc1nc2c(F)cc(-c3nc(Nc4ccc(S(=O)(=O)NCCOCCOCCNc5cc6c(cc5F)C(=O)N(C5CCC(=O)NC5=O)C6=O)cc4)ncc3F)cc2n1C(C)C (centres unmarked) [Compound 69]
5 | 1000 to 5000 | C[C@@]1(O)CCC[C@H]1n1c(=O)ccc2cnc(NC3CCN(S(=O)(=O)C4CCN(C(=O)CC5CCN(c6cc7c(cc6F)C(=O)N(C6CCC(=O)NC6=O)C7=O)CC5)CC4)CC3)nc21 (some centres unmarked) [Compound 62]
6 | 101 to 1000 | C[C@@]1(O)CCC[C@H]1n1c(=O)ccc2cnc(NC3CCN(S(=O)(=O)C4CCN(C5CC6(CC(NC(=O)C7CCN(c8cc9c(cc8F)C(=O)N(C8CCC(=O)NC8=O)C9=O)CC7)C6)C5)CC4)CC3)nc21 (some centres unmarked) [Compound 86]
7 | 1000 to 5000 | C[C@@]1(O)CCC[C@H]1n1c(=O)ccc2cnc(NC3CCN(S(=O)(=O)NCCOCc4cn(CCOCCOCCNc5cccc6c5C(=O)N(C5CCC(=O)NC5=O)C6=O)nn4)CC3)nc21 (some centres unmarked) [Compound 91]
8 | < 100 | Cc1nc2c(F)cc(-c3nc(N[C@@H]4CCN(S(=O)(=O)C5CCN(CC6CCN(c7cc8c(cc7F)C(=O)N(C7CCC(=O)NC7=O)C8=O)CC6)CC5)C[C@H]4O)ncc3F)cc2n1C(C)C (some centres unmarked) [Compound 111]
9 | > 10000 | C[C@@]1(O)CCC[C@H]1n1c(=O)ccc2cnc(Nc3ccc(S(=O)(=O)C4CCN(C5CC6(CCN(c7cc8c(cc7F)C(=O)N(C7CCC(=O)NC7=O)C8=O)CC6)C5)CC4)cc3)nc21 (some centres unmarked) [Compound 22]
10 | 1000 to 5000 | Cc1nc2c(F)cc(-c3nc(Nc4ccc(NS(=O)(=O)CCNC(=O)CO[C@@H]5C[C@H](C)CC[C@H]5C(C)C)cc4)ncc3F)cc2n1C(C)C (racemic) [Compound 26]
11 | > 10000 | CC(C)N1CCOc2c(F)cc(-c3nc(Nc4ccc(C5CCN(C(=O)CCCCCCCCOc6cccc7c6C(=O)N(C6CCC(=O)NC6=O)C7=O)CC5)cn4)ncc3F)cc21 (centres unmarked) [Compound 7]
12 | 101 to 1000 | Cc1nc2c(F)cc(-c3nc(Nc4ccc(S(=O)(=O)N5CCC6(CCN(C(=O)CNc7cc8c(cc7F)C(=O)N(C7CCC(=O)NC7=O)C8=O)CC6)CC5)cc4)ncc3F)cc2n1C(C)C (centres unmarked) [Compound 105]
13 | < 100 | CC(C)N1CCOc2c(F)cc(-c3nc(Nc4ccc(C5CCN(C(=O)COCCOCCNc6cccc7c6C(=O)N(C6CCC(=O)NC6=O)C7=O)CC5)cn4)ncc3F)cc21 (centres unmarked) [Compound 5]
14 | 1000 to 5000 | Cc1nc2c(F)cc(-c3nc(Nc4ccc(S(=O)(=O)NCCOCCNc5cccc6c5C(=O)N(C5CCC(=O)NC5=O)C6=O)cc4)ncc3F)cc2n1C(C)C (centres unmarked) [Compound 47]
15 | 1000 to 5000 | Cc1nc2c(F)cc(-c3nc(NC4CCN(S(=O)(=O)C5CCN(C(=O)C6CCN(c7cc8c(cc7F)C(=O)N(C7CCC(=O)NC7=O)C8=O)CC6)CC5)CC4)ncc3F)cc2n1C(C)C (centres unmarked) [Compound 74]
16 | > 10000 | CC(C)N1CCOc2c(F)cc(-c3nc(Nc4ccc(S(=O)(=O)NCCOCc5cn(CCOCCOCCNc6cccc7c6C(=O)N(C6CCC(=O)NC6=O)C7=O)nn5)cc4)ncc3F)cc21 (centres unmarked) [Compound 20, N-[2-[[1-[2-[2-[2-[[2-(2,6-dioxo-3-piperidyl)-1,3-dioxo-isoindolin-4-yl]amino]ethoxy]ethoxy]ethyl]triazol-4-yl]methoxy]ethyl]-4-[[5-fluoro-4-(8-fluoro-4-isopropyl-2,3-dihydro-1,4-benzoxazin-6-yl)pyrimidin-2-yl]amino]benzenesulfonamide]

Row | IC50 [nM] | Structure (SMILES)
17 | 101 to 1000 | Cc1nc2c(F)cc(-c3nc(Nc4ccc(S(=O)(=O)C5CCN(CC6CCN(C7CN(c8cc9c(cc8F)C(=O)N(C8CCC(=O)NC8=O)C9=O)C7)CC6)CC5)cc4)ncc3F)cc2n1C(C)C (centres unmarked) [Compound 65]
18 | > 10000 | CC(C)N1CCOc2c(F)cc(-c3nc(Nc4ccc(S(=O)(=O)N5CCN(C6CCN(C7CN(c8cccc9c8C(=O)N(C8CCC(=O)NC8=O)C9=O)C7)CC6)CC5)cc4)ncc3F)cc21 (centres unmarked) [Compound 55]
19 | > 10000 | CC(C)N1CCOc2c(F)cc(-c3nc(Nc4ccc(S(=O)(=O)N5CCC(NC(=O)C6CCN(c7cccc8c7C(=O)N(C7CCC(=O)NC7=O)C8=O)CC6)CC5)cc4)ncc3F)cc21 (centres unmarked) [Compound 73]
20 | 101 to 1000 | Cc1nc2c(F)cc(-c3nc(Nc4ccc(S(=O)(=O)NCCOCCNc5cc6c(cc5F)C(=O)N(C5CCC(=O)NC5=O)C6=O)cc4)ncc3F)cc2n1C(C)C (centres unmarked) [Compound 70]
21 | 101 to 1000 | Cc1nc2c(F)cc(-c3nc(Nc4ccc(S(=O)(=O)N5CCN(CC6CCN(c7ccc8c(c7)C(=O)N(C7CCC(=O)NC7=O)C8=O)CC6)CC5)cc4)ncc3F)cc2n1C(C)C (centres unmarked) [Compound 68]
22 | < 100 | Cc1nc2c(F)cc(-c3nc(Nc4ccc(S(=O)(=O)C5CCN(C6CN(C7CCN(c8cc9c(cc8F)C(=O)N(C8CCC(=O)NC8=O)C9=O)CC7)C6)CC5)cc4)ncc3F)cc2n1C(C)C (centres unmarked) [Compound 66]
23 | 101 to 1000 | C[C@@]1(O)CCC[C@H]1n1c(=O)ccc2cnc(NC3CCN(S(=O)(=O)C4CCN(C5CCC6(CC5)CCN(c5cc7c(cc5F)C(=O)N(C5CCC(=O)NC5=O)C7=O)CC6)CC4)CC3)nc21 (some centres unmarked) [Compound 89]
24 | > 10000 | CC(C)N1CCOc2c(F)cc(-c3nc(Nc4ccc(S(=O)(=O)N5CCN(C(=O)C6CCN(c7cccc8c7C(=O)N(C7CCC(=O)NC7=O)C8=O)CC6)CC5)cc4)ncc3F)cc21 (centres unmarked) [Compound 53]
25 | 101 to 1000 | Cc1nc2c(F)cc(-c3nc(NC4CCN(S(=O)(=O)C5CCN(CC6CC(N7CCC(c8cccc(C9CCC(=O)NC9=O)c8)CC7)C6)CC5)CC4)ncc3F)cc2n1C(C)C (centres unmarked) [Compound 102]
26 | > 10000 | Cc1ccsc1C(=O)n1nc(Nc2ccc(S(=O)(=O)NCCOCc3cn(CCOCCOCCNc4cccc5c4C(=O)N(C4CCC(=O)NC4=O)C5=O)nn3)cc2)nc1N (centres unmarked) [Compound 32]
27 | > 10000 | C[C@@]1(O)CCC[C@H]1n1c(=O)ccc2cnc(Nc3ccc(S(=O)(=O)C4CCN(CC5CCN(c6cccc7c6C(=O)N(C6CCC(=O)NC6=O)C7=O)CC5)CC4)cc3)nc21 (some centres unmarked) [Compound 44]
28 | > 10000 | Cc1nc2c(F)cc(-c3nc(Nc4ccc(S(=O)(=O)N5CC(C(=O)N6CCC7(CC6)CCN(c6cccc8c6C(=O)N(C6CCC(=O)NC6=O)C8=O)CC7)C5)cc4)ncc3F)cc2n1C(C)C (centres unmarked) [Compound 40]
29 | 1000 to 5000 | C[C@@]1(O)CCC[C@H]1n1c(=O)ccc2cnc(NC3CCN(S(=O)(=O)N4CCN(CC5CCN(c6cc7c(cc6F)C(=O)N(C6CCC(=O)NC6=O)C7=O)CC5)CC4)CC3)nc21 (some centres unmarked) [Compound 60]
30 | > 10000 | CC(C)[C@@H]1CC[C@@H](C)C[C@H]1OCC(=O)NCCS(=O)(=O)N1CCC(Nc2ncc(F)c(-c3cc(F)c4c(c3)N(C(C)C)CCO4)n2)CC1 [Compound 27]
31 | 101 to 1000 | C[C@@]1(O)CCC[C@H]1n1c(=O)ccc2cnc(NC3CCN(S(=O)(=O)C4CCN(C(=O)C5CCC6(CC5)CCN(c5cc7c(cc5F)C(=O)N(C5CCC(=O)NC5=O)C7=O)CC6)CC4)CC3)nc21 (some centres unmarked) [Compound 78]

Row | Structure (SMILES) | IC50 [nM]
32 | Cc1nc2c(F)cc(-c3nc(NC4CCN(S(=O)(=O)C5CCN(CC6CC7CCC(C6)N7c6cc7c(cc6F)C(=O)N(C6CCC(=O)NC6=O)C7=O)CC5)CC4)ncc3F)cc2n1C(C)C (centres unmarked) [Compound 99] | 101 to 1000
